For series [1], the target named is Amyloid-beta precursor protein (Homo sapiens, UniProt P05067).
A further series concerns the target Acetylcholinesterase (Electrophorus electricus, UniProt O42275). The series can be described thus: Inhibition of electric eel AChE by Ellman's method. (In general: DTNB colorimetry detects thiols as they appear.)
For another series, the target named is Cholinesterase (Equus caballus, UniProt P81908).
The test system of another series is PC-12. The series can be described thus: Cytotoxicity against rat PC12 cells assessed as effect on cell viability at <12.5 uM by CCK8 assay. The class given is cell-based.
The target in series [2] is Acetylcholinesterase (Homo sapiens) (UniProt P22303). Kind of series: Inhibition of AChE (unknown origin)-induced amyloid beta(1 to 42) aggregation by thioflavin-T fluorescence assay. To be noted: concentration not given here.
In a further series the test system is BV-2. The series can be described thus: Cytotoxicity against mouse BV-2 cells assessed as effect on cell viability at <12.5 uM by CCK8 assay. The class given is cell-based. For orientation: Formazan colour is commonly taken as a measure of viable cells.
In series [3] the target is Acetylcholinesterase (Homo sapiens) (UniProt P22303). The series can be described thus: Mixed type inhibition of AChE (unknown origin) assessed as increase in Km by Lineweaver-Burk plot analysis.
Series [4] shares this target. Kind of series: Mixed type inhibition of AChE (unknown origin) assessed as decrease in Vmax by Lineweaver-Burk plot analysis.

SMILES strings stand for the structures. The source made the active and inactive calls. No cut-off for these calls is given here.

Chain of Cholinesterase (P81908 whole entry): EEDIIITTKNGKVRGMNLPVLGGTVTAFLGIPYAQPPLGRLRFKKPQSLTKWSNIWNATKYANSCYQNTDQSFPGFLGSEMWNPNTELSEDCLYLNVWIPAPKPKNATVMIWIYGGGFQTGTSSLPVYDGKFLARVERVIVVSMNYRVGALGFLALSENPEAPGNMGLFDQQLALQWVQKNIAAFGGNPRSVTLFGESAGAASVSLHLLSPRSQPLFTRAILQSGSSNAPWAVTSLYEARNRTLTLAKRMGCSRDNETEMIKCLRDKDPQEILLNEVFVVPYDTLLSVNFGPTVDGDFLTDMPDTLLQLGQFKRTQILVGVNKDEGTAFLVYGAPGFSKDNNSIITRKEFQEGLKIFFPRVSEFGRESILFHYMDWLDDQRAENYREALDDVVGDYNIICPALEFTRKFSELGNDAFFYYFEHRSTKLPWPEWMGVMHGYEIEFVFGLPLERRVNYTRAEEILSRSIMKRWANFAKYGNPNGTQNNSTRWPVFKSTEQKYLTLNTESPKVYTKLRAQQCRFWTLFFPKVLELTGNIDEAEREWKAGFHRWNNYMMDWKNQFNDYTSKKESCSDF
Chain of Acetylcholinesterase (Homo sapiens) (P22303 whole entry): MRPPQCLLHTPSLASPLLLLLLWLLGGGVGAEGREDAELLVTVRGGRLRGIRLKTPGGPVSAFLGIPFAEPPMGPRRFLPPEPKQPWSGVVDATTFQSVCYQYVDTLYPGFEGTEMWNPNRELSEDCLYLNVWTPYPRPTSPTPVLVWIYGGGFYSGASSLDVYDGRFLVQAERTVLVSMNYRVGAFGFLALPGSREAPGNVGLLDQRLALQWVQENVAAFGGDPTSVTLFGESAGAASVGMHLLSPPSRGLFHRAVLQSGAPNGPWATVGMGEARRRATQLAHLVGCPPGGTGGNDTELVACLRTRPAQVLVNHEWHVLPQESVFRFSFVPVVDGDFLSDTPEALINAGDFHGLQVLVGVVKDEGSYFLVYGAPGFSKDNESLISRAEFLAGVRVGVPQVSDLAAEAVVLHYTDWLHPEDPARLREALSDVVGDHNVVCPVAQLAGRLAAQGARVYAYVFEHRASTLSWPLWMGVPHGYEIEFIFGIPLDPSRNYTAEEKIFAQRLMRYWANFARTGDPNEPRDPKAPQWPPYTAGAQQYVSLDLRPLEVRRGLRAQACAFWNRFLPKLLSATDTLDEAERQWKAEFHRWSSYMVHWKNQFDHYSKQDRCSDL
Chain of Acetylcholinesterase (O42275 whole entry): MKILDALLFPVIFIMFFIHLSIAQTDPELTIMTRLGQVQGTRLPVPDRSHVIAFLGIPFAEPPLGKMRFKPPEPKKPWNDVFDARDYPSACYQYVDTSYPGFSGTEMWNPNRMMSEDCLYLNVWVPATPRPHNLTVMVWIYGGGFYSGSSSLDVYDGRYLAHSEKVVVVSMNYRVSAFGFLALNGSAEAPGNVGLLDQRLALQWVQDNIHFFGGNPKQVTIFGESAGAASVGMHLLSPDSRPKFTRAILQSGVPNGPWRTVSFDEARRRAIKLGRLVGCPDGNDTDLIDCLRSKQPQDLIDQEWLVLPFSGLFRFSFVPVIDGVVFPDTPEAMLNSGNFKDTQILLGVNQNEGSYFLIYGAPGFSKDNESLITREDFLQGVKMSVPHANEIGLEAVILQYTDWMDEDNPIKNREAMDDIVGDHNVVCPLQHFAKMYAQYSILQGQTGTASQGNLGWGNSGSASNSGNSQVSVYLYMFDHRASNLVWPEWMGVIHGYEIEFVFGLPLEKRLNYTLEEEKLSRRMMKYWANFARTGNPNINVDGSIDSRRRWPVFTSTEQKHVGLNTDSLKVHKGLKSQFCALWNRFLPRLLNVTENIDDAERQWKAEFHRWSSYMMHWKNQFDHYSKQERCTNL
Chain of Amyloid-beta precursor protein (P05067 whole entry): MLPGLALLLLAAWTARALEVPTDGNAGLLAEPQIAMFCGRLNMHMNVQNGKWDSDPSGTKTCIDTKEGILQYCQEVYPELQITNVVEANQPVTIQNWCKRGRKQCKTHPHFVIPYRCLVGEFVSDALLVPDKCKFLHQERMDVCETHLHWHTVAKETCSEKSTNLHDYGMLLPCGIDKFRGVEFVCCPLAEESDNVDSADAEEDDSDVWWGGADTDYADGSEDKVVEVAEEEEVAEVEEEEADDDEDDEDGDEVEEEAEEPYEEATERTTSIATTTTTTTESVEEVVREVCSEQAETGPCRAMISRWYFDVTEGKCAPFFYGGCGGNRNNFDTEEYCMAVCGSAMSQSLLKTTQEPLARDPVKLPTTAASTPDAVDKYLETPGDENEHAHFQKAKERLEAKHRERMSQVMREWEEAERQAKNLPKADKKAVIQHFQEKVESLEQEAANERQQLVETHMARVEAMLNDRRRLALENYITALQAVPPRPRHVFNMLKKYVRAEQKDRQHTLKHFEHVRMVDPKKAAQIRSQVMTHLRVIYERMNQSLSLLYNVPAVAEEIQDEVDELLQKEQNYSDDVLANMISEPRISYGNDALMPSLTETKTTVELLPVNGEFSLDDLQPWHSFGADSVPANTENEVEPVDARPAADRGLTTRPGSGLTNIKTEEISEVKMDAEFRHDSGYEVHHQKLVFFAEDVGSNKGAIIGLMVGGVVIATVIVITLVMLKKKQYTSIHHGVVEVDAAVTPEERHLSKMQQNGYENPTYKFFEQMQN

As usually defined, the IC50 is the point on the concentration scale where inhibition reaches its midpoint. As for `O=C(Nc1ccc2nc3n(c(=O)c2c1)CCC3)c1cc2ccccc2o1`, the IC50 in series [1] is 3260 nM; against Acetylcholinesterase, 1510 nM; against Cholinesterase, 1850 nM.
What is called inhibition is the percentage by which the read-out fell short of the control. With `COc1ccc2[nH]c(C(=O)Nc3ccc4nc5n(c(=O)c4c3)CCC5)cc2c1`, the IC50 in series [1] came out at 1210 nM; on Acetylcholinesterase, 120 nM; against Cholinesterase, 150 nM. The Activity result in the series on PC-12 and in the series on BV-2 was “Non-Toxic” throughout. This compound also had an inhibition in series [2] of 80%. Besides, the inhibition entry in series [3] and in series [4] was “Active” in each case.
In the case of `O=C(Nc1ccc2nc3n(c(=O)c2c1)CCC3)c1cc2cc(F)ccc2[nH]1`, the figures for the IC50 (in series [1]; at Acetylcholinesterase; on Cholinesterase) were 1560 nM, 780 nM and 750 nM, respectively. The compound also came in with an inhibition in series [2] of 61.8%.
Taken in the same sequence, the figures for `O=C(Nc1ccc2nc3n(c(=O)c2c1)CCC3)c1cc2cc(Cl)ccc2[nH]1` were 1690 nM, 260 nM, 770 nM and 52.1%.
Turning to `O=C(/C=C/c1cc2ccccc2[nH]1)Nc1ccc2nc3n(c(=O)c2c1)CCC3`, the IC50 stood at 3090 nM in series [1], 1650 nM at Acetylcholinesterase and 4470 nM on Cholinesterase.
Taken in the same sequence, the figures for `O=C(CCCc1cc2ccccc2[nH]1)Nc1ccc2nc3n(c(=O)c2c1)CCC3` were 5270 nM, 6350 nM and 1600 nM.
On the same counts, the results for `O=C(Cc1cc2ccccc2[nH]1)Nc1ccc2nc3n(c(=O)c2c1)CCC3` are 1620 nM, 980 nM and 1380 nM.
Regarding `Cc1cc2nc3n(c(=O)c2cc1NC(=O)c1cc2cc(F)ccc2[nH]1)CCC3`, the results for the IC50 (in series [1]; on Acetylcholinesterase; against Cholinesterase) were 3270 nM, 1350 nM and 1720 nM, respectively.
On the same counts, the results for `O=C(Nc1ccc2nc3n(c(=O)c2c1)CCC3)c1cc2ccccc2s1` are 2300 nM, 2510 nM and 1900 nM.
With `COc1ccc2[nH]c(C(=O)Nc3cc4c(=O)n5c(nc4cc3C)CCC5)cc2c1`, the IC50 came out at 6100 nM in series [1], 2080 nM against Acetylcholinesterase and 5230 nM on Cholinesterase.
`Cc1cc2nc3n(c(=O)c2cc1NC(=O)c1cc2cc(Cl)ccc2[nH]1)CCC3`: the IC50 in series [1] was found to be 5100 nM; at Acetylcholinesterase, 1080 nM; against Cholinesterase, 4670 nM.
For `O=C(Nc1ccc2nc3n(c(=O)c2c1)CCC3)c1cc2ccccc2[nH]1`, the IC50 is 2160 nM in series [1], 1560 nM against Acetylcholinesterase and 900 nM against Cholinesterase.

Values taken from ChEMBL document CHEMBL4808191, “Design, synthesis and biological evaluation of novel deoxyvasicinone-indole as multi-target agents for Alzheimer's disease” (Bioorg Med Chem Lett, 2021).
